Experimental data reported in US20230202989A1, “COMPOUNDS” (JANSSEN PHARMACEUTICA NV, priority 2020, published 2023).
Where two headings read alike, the source gives them in different places.

Legend:
TNF = test: PBMC assay: TNF cytokine levels after LPS stimulation (MSD); type: cell-based; details: human PBMCs, 100 ng/ml LPS for 6 hrs
Method in brief: (§1)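 Cryopreserved human PBMCs (7.5×10^4/well) in RPMI/10% FBS were preincubated with serially diluted compound for 30 min at 37 °C, then stimulated with 100 ng/ml LPS for 6 h. Supernatant IL-1β and TNF measured by MSD. IC50 derived for IL-1β, EC50 for TNF.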

IL-1β = test: PBMC assay: inhibition of IL-1β release after LPS stimulation (MSD); type: cell-based; details: human PBMCs, 100 ng/ml LPS for 6 hrs, MSD, 96 well plates, read-out: IL1β IC50
Method in brief: as §1

EC50 (TNF; Homo sapiens, PBMC, 6 h) [µM]	IC50 (IL-1β; Homo sapiens, PBMC, 6 h) [µM]	EC50 (TNF) [µM]	IC50 (IL-1β) [µM]	Structure (SMILES)
> 20	0.679			CC(C)c1nn(CC(=O)N[C@H]2C[C@@H](O)C2)c(=O)c2ccc(C(F)(F)F)cc12 [Final Cpd X67]
> 20	0.728			Cc1nnc2n1CC(NC(=O)Cn1nc(C(C)C)c3cc(C(F)(F)F)ccc3c1=O)CC2 (stereo not shown) [Final Cpd X68]
> 20	0.735			CC(C)c1nn(CC(=O)Nc2ncnc3c2ncn3C)c(=O)c2ccc(C(F)(F)F)cc12 [Final Cpd X69]
> 20	0.74			CC(C)c1nn(CC(=O)N[C@H]2CN(CC[C@@H](C)O)CC[C@H]2O)c(=O)c2ccc(C(F)(F)F)cc12 [Final Cpd X70]
> 20	0.751			CC(C)c1nn(CC(=O)Nc2ccc3nncn3c2)c(=O)c2c(F)cc(C(F)(F)F)cc12 [Final Cpd X71]
> 20	0.792			CC(C)c1nn(CC(=O)Nc2cnc3nccn3c2)c(=O)c2ccc(C(F)(F)F)cc12 [Final Cpd X73]
> 20	0.804			Cc1c(NC(=O)Cn2nc(C(C)C)c3cc(C(F)(F)F)ccc3c2=O)ccc2nccn12 [Final Cpd X74]
> 20	0.818			CC(O)c1nn(CC(=O)N[C@H]2C[C@@](C)(O)C2)c(=O)c2ccc(C(F)(F)F)cc12 (stereo partly shown) [Final Cpd X75]
		> 20	0.829	O=C(Cn1nc(CCC(F)(F)F)c2cc(C(F)(F)F)ccc2c1=O)Nc1ccc2nncn2c1 [Final Cpd X76]
> 20	0.83			CC(C)c1nn(CC(=O)NC2CC(C(F)(F)F)C2)c(=O)c2ccc(C(F)(F)F)cc12 (stereo not shown) [Final Cpd X77]
> 20	0.861			CC(C)c1nn(CC(=O)N[C@H]2CC[C@](C)(O)CC2)c(=O)c2ccc(C(F)(F)F)cc12 [Final Cpd X78]
> 20	0.865			Cc1cnc2ccc(NC(=O)Cn3nc(C(C)C)c4cc(C(F)(F)F)ccc4c3=O)cn12 [Final Cpd X79]
> 20	0.866			CC(C)c1nn(CC(=O)Nc2ncc3c(ncn3C)n2)c(=O)c2ccc(C(F)(F)F)cc12 [Final Cpd X80]
> 20	0.879			CC(C)c1nn(CC(=O)N[C@H]2CN(CC[C@H](C)O)CC[C@H]2O)c(=O)c2ccc(C(F)(F)F)cc12 [Final Cpd X81]
12.9	0.888			CC(C)c1nn(CC(=O)Nc2ccc3nncn3n2)c(=O)c2c(O)cc(C(F)(F)F)cc12 [Final Cpd X82]
12.9	0.91			CC(C)c1nn(CC(=O)N[C@H]2CN(C3CC(F)(F)C3)CC[C@H]2O)c(=O)c2ccc(C(F)(F)F)cc12 [Final Cpd X83]
> 20	0.911			C[C@]1(O)C[C@@H](NC(=O)Cn2nc(C(O)C(F)(F)F)c3cc(C(F)(F)F)ccc3c2=O)C1 (stereo partly shown) [Final Cpd X84]
> 20	0.915			CC(c1nn(CC(=O)N[C@H]2C[C@@](C)(O)C2)c(=O)c2ccc(C(F)(F)F)cc12)C(F)(F)F (stereo partly shown) [Final Cpd X85]
> 20	0.915			CC(C)c1nn(CC(=O)N[C@@H]2CCC[C@H]2O)c(=O)c2ccc(C(F)(F)F)cc12 [Final Cpd X86]
> 20	0.916			CC(C)c1nn(CC(=O)Nc2ccc3nnc(C(F)(F)F)n3n2)c(=O)c2ccc(C(F)(F)F)cc12 [Final Cpd X87]

EC50 (TNF; Homo sapiens, PBMC, 6 h) [µM]	IC50 (IL-1β; Homo sapiens, PBMC, 6 h) [µM]	EC50 (TNF) [µM]	IC50 (IL-1β) [µM]	Structure (SMILES)
> 20	0.924			CC(C)c1nn(CC(=O)Nc2ccc3c(C#N)ncn3c2)c(=O)c2ccc(C(F)(F)F)cc12 [Final Cpd X88]
> 20	0.924			CC(C)c1nn(CC(=O)NC2CCc3nncn3C2)c(=O)c2ccc(C(F)(F)F)cc12 (stereo not shown) [Final Cpd X89]
		> 20	0.954	CC(C)c1nn(CC(=O)N[C@H]2CC[C@@H]2O)c(=O)c2ccc(C(F)(F)F)cc12 [Final Cpd X91]
> 20	0.97			Cc1cc(NC(=O)Cn2nc(C(C)C)c3cc(C(F)(F)F)ccc3c2=O)cn2ccnc12 [Final Cpd X92]
> 20	1.01			Cn1nc(NC(=O)Cn2nc(C3CC3)c3cc(C(F)(F)F)ccc3c2=O)ccc1=O [Final Cpd X93]
> 20	1.07			CC(C)c1nn(CC(=O)N[C@H]2C[C@H](O)C2)c(=O)c2ccc(C(F)(F)F)cc12 [Final Cpd X94]
> 20	1.1			CC(C)c1nn(CC(=O)N[C@@H]2CC[C@@H]2O)c(=O)c2ccc(C(F)(F)F)cc12 [Final Cpd X95]
> 20	1.11			CC(C)c1nn(CC(=O)Nc2nc(Cl)c3ncn(C)c3n2)c(=O)c2ccc(C(F)(F)F)cc12 [Final Cpd X96]
> 20	1.12			CC(C)c1nn(CC(=O)Nc2ccc3nc(C#N)cn3c2)c(=O)c2ccc(C(F)(F)F)cc12 [Final Cpd X97]
> 20	1.15			CC(C)c1nn(CC(=O)N[C@@H]2CCCC[C@H]2O)c(=O)c2ccc(C(F)(F)F)cc12 [Final Cpd X98]
> 20	1.16			CC(C)c1nn(CC(=O)N[C@H]2C[C@H](C(C)(C)O)C2)c(=O)c2ccc(C(F)(F)F)cc12 [Final Cpd X99]
> 20	1.26			CC(C)c1nn(CC(=O)N[C@@H]2CC[C@](C)(O)C2)c(=O)c2ccc(C(F)(F)F)cc12 [Final Cpd X100]
> 20	1.28			CC(C)c1nn(CC(=O)Nc2ccc3cnnn3c2)c(=O)c2ccc(C(F)(F)F)cc12 [Final Cpd X101]
> 20	1.3			COC(C)c1nn(CC(=O)Nc2ccc3nncn3c2)c(=O)c2ccc(C(F)(F)F)cc12 (stereo not shown) [Final Cpd X102]
> 20	1.32			CC(O)c1nn(CC(=O)Nc2ccncn2)c(=O)c2ccc(C(F)(F)F)cc12 (stereo not shown) [Final Cpd X103]
> 20	1.41			CC(C)c1nn(CC(=O)N[C@H]2CN(C3COC3)CC[C@H]2O)c(=O)c2ccc(C(F)(F)F)cc12 [Final Cpd X104]
> 20	1.52			CO[C@H]1C[C@H](NC(=O)Cn2nc(C(C)C)c3cc(C(F)(F)F)ccc3c2=O)C1 [Final Cpd X105]
> 20	1.61			CC(C)c1nn(CC(=O)N[C@@H]2CCc3nncn3C2)c(=O)c2ccc(C(F)(F)F)cc12 [Final Cpd X106]
> 20	1.61			COC(C)c1nn(CC(=O)N[C@H]2C[C@@](C)(O)C2)c(=O)c2ccc(C(F)(F)F)cc12 (stereo partly shown) [Final Cpd X107]
> 20	1.63			CC(C)c1nn(CC(=O)N[C@H]2C[C@@H](C(C)(C)O)C2)c(=O)c2ccc(C(F)(F)F)cc12 [Final Cpd X108]

EC50 (TNF; Homo sapiens, PBMC, 6 h) [µM]	IC50 (IL-1β; Homo sapiens, PBMC, 6 h) [µM]	EC50 (TNF) [µM]	IC50 (IL-1β) [µM]	Structure (SMILES)
> 20	1.64			CC(C)c1nn(CC(=O)N[C@@H]2CC[C@@](C)(O)C2)c(=O)c2ccc(C(F)(F)F)cc12 [Final Cpd X110]
7.93	1.7			COC(C)c1nn(CC(=O)Nc2ccncn2)c(=O)c2ccc(C(F)(F)F)cc12 (stereo not shown) [Final Cpd X111]
> 20	1.73			CC(C)c1nn(CC(=O)Nc2ccn(C)c(=O)n2)c(=O)c2ccc(C(F)(F)F)cc12 [Final Cpd X112]
> 20	1.86			CC(C)c1nn(CC(=O)Nc2ccc3c(c2)nnn3C)c(=O)c2ccc(C(F)(F)F)cc12 [Final Cpd X113]
> 20	1.94			CC(C)c1nn(CC(=O)Nc2ccc3cnn(C)c3c2)c(=O)c2ccc(C(F)(F)F)cc12 [Final Cpd X114]
		> 20	2.02	CC(C)c1nn(CC(=O)N[C@@H]2CC[C@@H]2O)c(=O)c2ccc(C(F)(F)F)cc12 [Final Cpd X115]
> 20	2.09			CO[C@H]1C[C@@H](NC(=O)Cn2nc(C(C)C)c3cc(C(F)(F)F)ccc3c2=O)C1 [Final Cpd X116]
> 20	2.11			CCN1C[C@H](NC(=O)Cn2nc(C(C)C)c3cc(C(F)(F)F)ccc3c2=O)CC(F)(F)C1 [Final Cpd X117]
> 20	2.13			CC(C)c1nn(CC(=O)Nc2ccc3nc(C(F)F)cn3n2)c(=O)c2ccc(C(F)(F)F)cc12 [Final Cpd X118]
> 20	2.13			CC(C)c1nn(CC(=O)N[C@H]2C[C@@](O)(C(F)(F)F)C2)c(=O)c2ccc(C(F)(F)F)cc12 [Final Cpd X119]
> 20	2.57			CC(C)c1nn(CC(=O)Nc2cc(Cl)c(=O)n(C(F)F)c2)c(=O)c2ccc(C(F)(F)F)cc12 [Final Cpd X120]
> 20	2.65			CC(C)c1nn(CC(=O)NC2(C)CC(O)C2)c(=O)c2ccc(C(F)(F)F)cc12 (stereo not shown) [Final Cpd X121]
> 20	2.68			CC(C)c1nn(CC(=O)N[C@H]2C[C@@H](O)CN(C)C2)c(=O)c2ccc(C(F)(F)F)cc12 [Final Cpd X122]
> 20	2.7			CC(C)c1nn(CC(=O)Nc2ccc3cn(C)nc3c2)c(=O)c2ccc(C(F)(F)F)cc12 [Final Cpd X123]
> 20	2.88			CC1(c2nn(CC(=O)Nc3ccc4nncn4c3)c(=O)c3ccc(C(F)(F)F)cc23)CC1 [Final Cpd X125]
> 20	2.94			CC(C)c1nn(CC(=O)NC2(C)CC(F)(F)C2)c(=O)c2ccc(C(F)(F)F)cc12 [Final Cpd X126]
> 20	2.94			CC(C)c1nn(CC(=O)Nc2ccn3ccnc3n2)c(=O)c2ccc(C(F)(F)F)cc12 [Final Cpd X127]
> 20	2.95			CC(C)c1nn(CC(=O)NC2CCC(C)(C)OC2)c(=O)c2ccc(C(F)(F)F)cc12 (stereo not shown) [Final Cpd X128]
> 20	3.09			CO[C@H]1CC[C@@H](NC(=O)Cn2nc(C(C)C)c3cc(C(F)(F)F)ccc3c2=O)CC1 [Final Cpd X131]
